Data taken from patent publication US12673050B2, “Compositions and their use for the treatment of A1-antitrypsin deficiency” (Centessa Pharmaceuticals (UK) Limited, priority 2021, dated 2026).

How the values were obtained:
human Siiyama A1AT = target: T1, human Siiyama A1AT (Homo sapiens, UniProt P01009, S77F); experiment: A1AT cell secretion assay using HEK-Siiyama cells (ELISA); assay type: cell-based; settings: 10 μM, 48 h
T1 construct: expressed in transfected cells; host or cells: HEK-Siiyama cells (HEK-EBNA with Siiyama A1AT plasmid)
Protocol: (§1) HEK-Siiyama cells, a human embryonic kidney cell line stably transfected with the Siiyama A1AT gene, were plated into 96 well plates (3.0×10^5 cells/ml with 200 μl of media/well) overnight at 37° C. in a humidified atmosphere containing 5% CO2. Following incubation cells were washed with 200 μl serum-free media three times and media was replaced with serum-free media containing vehicle, 10 μM suberanilohydroxamic acid (SAHA), (S)-1-((2-(trifluoromethyl)phenyl)sulfonyl)piperidine-3-carboxylic acid (at 1 or 10 μM) or (R)-1-((2-(trifluoromethyl)phenyl)sulfonyl)piperidine-3-carboxylic acid (at 1 or 10 μM) in replicates of eight for 48 h in a 37° C. incubator in a final volume of 200 μl. At the end of the incubation step the supernatants were removed from the wells, centrifuged at 1000×g at 4° C. for 10 min and were assayed for human A1AT levels by ELISA (Human Serpin A1/α1-antitrypsin duo set ELISA, R& D Systems, DY1268) per manufacturer's instructions.
(§2) Briefly, a 96 well plate was coated with human A1AT capture antibody overnight at room temperature (1:180 dilution from stock, 100 μl final volume/well). The capture antibody was then removed and wells washed three times with 300 μl wash buffer (0.05% Tween 20 in PBS) and then 200 μl reagent diluent (25% Tween 20 in PBS) was incubated in each well for 1 h at room temperature. Diluted samples, standards (125, 250, 500, 1000, 2000, 4000 and 8000 pg/ml A1AT) or blanks were then added to each well in duplicate and the plates were covered with a plate sealer and left at room temperature for 2 h. […] After which, 50 μl stop solution (2M H2SO4) was added and optical density (OD) of each well was read at 450 nm with 570 nm blank subtracted from each well using a microplate reader. A 4 parameter logistic curve was constructed using GraphPad Prism 7 and A1AT concentrations were determined in each sample by interpolation from a standard curve and multiplying by the appropriate dilution factor.
(§3) The amount of human A1AT secreted from transfected HEK-EBNA cells into the media was measured by ELISA. […]

human M A1AT = target: T2, human M A1AT (Homo sapiens, UniProt P01009); experiment: A1AT cell secretion assay using HEK-M cells (ELISA); assay type: cell-based; settings: 10 μM, 48 h
T2 construct: expressed in transfected cells; host or cells: HEK-M cells (HEK-EBNA with M A1AT plasmid)
Protocol: as §1, with “HEK-M cells, a” for “HEK-Siiyama cells, a”, “transfected with M A1AT, were plated” for “transfected with the Siiyama A1AT gene, were plated”, “media containing either vehicle, 10” for “media containing vehicle, 10”, “acid (at 10 μM)” for “acid (at 1 or 10 μM)”, “replicates of six for 48” for “replicates of eight for 48”, “(Human Serpin A1/α1 antitrypsin duo set” for “(Human Serpin A1/α1-antitrypsin duo set”
as §2, with “(0.05% Tween in PBS)” for “(0.05% Tween 20 in PBS)”
as §3

T2 sequence (P01009 25-418): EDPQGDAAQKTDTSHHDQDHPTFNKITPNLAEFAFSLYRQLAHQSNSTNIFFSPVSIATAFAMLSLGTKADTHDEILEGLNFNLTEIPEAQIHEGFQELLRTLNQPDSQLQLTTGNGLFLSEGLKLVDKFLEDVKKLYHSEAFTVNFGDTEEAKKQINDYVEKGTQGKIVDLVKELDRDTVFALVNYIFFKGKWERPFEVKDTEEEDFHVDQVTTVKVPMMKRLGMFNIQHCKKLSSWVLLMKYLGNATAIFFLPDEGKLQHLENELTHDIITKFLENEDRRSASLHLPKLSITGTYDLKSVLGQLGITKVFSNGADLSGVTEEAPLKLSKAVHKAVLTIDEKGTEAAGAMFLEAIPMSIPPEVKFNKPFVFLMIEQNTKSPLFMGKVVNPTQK
T1 sequence (P01009 25-418 S77F): as the sequence (P01009 25-418) above, with S53F counted along it

## O=C(CCCCCCC(=O)Nc1ccccc1)NO [SAHA, suberanilohydroxamic acid, reference compound]
Human Siiyama A1AT
  secretion of human Siiyama A1AT into cell supernatant (positive control): stimulates an increase in Siiyama A1AT secretion
Human M A1AT
  secretion of human M A1AT into cell supernatant: stimulates an increase in M A1AT secretion
